The values that follow come from patent US4002623A, “Anti-inflammatory 1-[3-(dialkylamino)propyl]-2-acylaminobenzimidazoles and 2-acylamino-3-[3-(dialkylamino)-propyl]imidazo[4,5-b]pyridines” (Pfizer Inc., priority 1974, dated 1977).

Where two headings read alike, the source gives them in different places.

This assay in a line: adjuvant arthritis screen (Walz et al.), swelling of the non-injected left hind foot on Day 16. It is filed as in vivo, male inbred Lewis rats. To be noted: Rattus norvegicus, 384 h, daily day -1 through day 15, read-out: Activity Percent Inhibition; for inhibition in vivo at 20 mg/kg: 20 mg./kg. po. From the text:
The adjuvant arthritis test described by Walz et al., Ann. Rheum. Dis., 30, 303 (1971) was selected as the method of choice for the determination of the extent of which the novel compounds of the present invention are therapeutically effective as anti-inflammatory agents. Adjuvant arthritis is a crippling deformity in rats resulting from diffuse connective tissue involvement. It is considered by some authorities to be the best available experimental animal model of human rheumatoid arthritis because of its strong clinical and pathological similarities to the human disease and because it can be effectively treated with known anti-arthritic drugs. In this test, lesions resembling those of human rheumatoid arthritis are induced by the injection of complete Freund's adjuvant into one hind leg of a rat. A vigorous inflammatory response occurs in the injected hind leg and reaches its greatest size in about four days. This primary response is followed by the development of a second inflammatory response, appearing about 12-16 days post-injection, that occurs in the uninjected hind leg. While the compounds of the invention are capable of inhibiting the degree of inflammation in both legs, the inhibition of swelling in the uninjected leg at 16 days is considered to be the more meaningful measure of antiarthritic activity.
The adjuvant arthritis screen as described by Walz et al. (Ann. Rheum. Dis., 30: 303 (1971), was used to evaluate the above prepared compounds.
The screen is conducted using male inbred Lewis rats weighing approximately 250 gm. The animals are dosed with drug beginning on day- 1 and continuing daily through day 15. On Day 0, the subplanter surface of the right hind paw is injected with 0.1cc of a 1% suspension of Mycobacterium butyricum (Freunds adjuvant) in Primol (Esso). The swelling of the non-injected left hind foot on Day 16, resulting from immune response to adjuvant, was determined for dosed animals and controls. The foot volume is measured by immersing the paw to the anatomical hairline into a mercury reservoir which is connected to a Statham pressure transducer and a recording device. The results are expressed as % inhibition calculated according to the following equation: [formula] The results obtained are as follows for [drawing 22] where Z is --N(CH3)2 and X is carbon: […]

With `Cc1cc2nc(NC(=O)c3cccc(C(F)(F)F)c3)n(CCCN3CCN(C)CC3)c2cc1C`, the inhibition in vivo at 20 mg/kg worked out at 22%. As to `CN(C)CCCn1c(NC(=O)c2cccc(C(F)(F)F)c2)nc2ccccc21`, the inhibition in vivo at 33 mg/kg (33 mg./kg. ip) is 21%. With `CN1CCN(CCCn2c(NC(=O)c3cccc(C(F)(F)F)c3)nc3cc(S(=O)(=O)N(C)C)ccc32)CC1`, the inhibition in vivo at 20 mg/kg came to 22%. Still for that read-out and setting: the result for `CN1CCN(CCCn2c(NC(=O)c3ccc(Cl)c(Cl)c3)nc3cc(S(=O)(=O)N(C)C)ccc32)CC1` reads 31%. Regarding `CN1CCN(CCCn2c(NC(=O)c3cc(C(F)(F)F)cc(C(F)(F)F)c3)nc3ccccc32)CC1`, the inhibition in vivo at 20 mg/kg was determined as 32%. As to `Cc1cc2nc(NC(=O)c3ccc(C(F)(F)F)cc3)n(CCCN3CCN(C)CC3)c2cc1C`, the inhibition in vivo at 20 mg/kg was found to be 29%. Same read-out and setting: then `CN1CCN(CCCn2c(NC(=O)c3ccc(C(F)(F)F)cc3)nc3cc(S(=O)(=O)N(C)C)ccc32)CC1`, with 34%.

For `CN1CCN(CCCn2c(NC(=O)C34CC5CC(CC(C5)C3)C4)nc3ccccc32)CC1` [1-Adamantyl; H; H; drawing 24], under “33 mg./kg. ip”, the inhibition in vivo at 33 mg/kg is 28%.

Take `CN(C)CCCn1c(NC(=O)c2ccccc2Cl)nc2ccccc21` [2-Chlorophenyl; H; H; Z = N(CH3)2]: for the setting “33 mg./kg. ip”, the inhibition in vivo at 33 mg/kg is 15%. For `CN(C)CCCn1c(NC(=O)C=Cc2ccccc2Cl)nc2ccccc21` [2-Chlorostyryl; H; H; Z = N(CH3)2], the inhibition in vivo at 33 mg/kg (33 mg./kg. ip) was determined as 45%.

Turning to `O=C(Nc1nc2ccccc2n1CCCN1CCOCC1)c1ccccc1F` [2-Fluorophenyl; H; H; drawing 23], under “33 mg./kg. ip”, the inhibition in vivo at 33 mg/kg amounted to 6%. Regarding `CN1CCN(CCCn2c(NC(=O)c3ccco3)nc3ccccc32)CC1` [2-Furyl; H; H; drawing 24, 1-[3-(4-methyl-1-piperazinyl)propyl]-2-(2-furamido)-benzimidazole], the inhibition in vivo at 20 mg/kg worked out at 43%. Same read-out and setting: then `Cc1cc2nc(NC(=O)c3ccc(Cl)c(Cl)c3)n(CCCN3CCN(C)CC3)c2cc1C` [3,4-Dichlorophenyl; CH3; CH3; drawing 24], with 18%; and `Cc1ccc2nc(NC(=O)c3ccc(Cl)c(Cl)c3)n(CCCN3CCN(C)CC3)c2c1` [3,4-Dichlorophenyl; H; CH3; drawing 24], with 22%. As to `CN(C)CCCn1c(NC(=O)c2ccc(Cl)c(Cl)c2)nc2ccccc21` [3,4-Dichlorophenyl; H; H; Z = N(CH3)2], the inhibition in vivo at 10 mg/kg (10 mg./kg. po) turned out to be 13%. Further, for the setting “33 mg./kg. ip”, the inhibition in vivo at 33 mg/kg amounted to 67%.

As for `CN1CCN(CCCn2c(NC(=O)c3ccc(Cl)c(Cl)c3)nc3ccccc32)CC1` [3,4-Dichlorophenyl; H; H; drawing 24, 1-[3-(4-methyl-1-piperazinyl)propyl]-2-(3,4-dichlorobenzamido)benzimidazole], for the setting “10 mg./kg. po”, the inhibition in vivo at 10 mg/kg came out at 32%. Also, the inhibition in vivo at 33 mg/kg (33 mg./kg. ip) is 61%. Turning to `CN1CCN(CCCn2c(NC(=O)c3ccc(Cl)c(Cl)c3)nc3cccnc32)CC1` [3,4-Dichlorophenyl; H; H; drawing 25, 2-(3,4-dichlorobenzamido)-3-[4-(methyl-1-piperazino)-propyl]imidazo[4,5-b]pyridine], the inhibition in vivo at 20 mg/kg was found to be 41%. The inhibition in vivo at 10 mg/kg (10 mg./kg. po) amounted to 27%.

For the compound `O=C(Nc1nc2ccccc2n1CCCN1CCCCC1)c1ccc(Cl)c(Cl)c1` [3,4-Dichlorophenyl; H; H; drawing 26], the inhibition in vivo at 33 mg/kg (33 mg./kg. ip) stood at 25%. As to `O=C(Nc1nc2ccccc2n1CCCN1CCN(Cc2ccccc2)CC1)c1ccc(Cl)c(Cl)c1` [3,4-Dichlorophenyl; H; H; drawing 27], for the setting “10 mg./kg. ip”, the inhibition in vivo at 10 mg/kg was 19%. Take `COc1ccc2c(c1)nc(NC(=O)c1ccc(Cl)c(Cl)c1)n2CCCN1CCN(C)CC1` [3,4-Dichlorophenyl; OCH3; H; drawing 24, 1-[3-(4-methyl-1-piperazinyl)propyl]-2-(3,4-dichlorobenzamido)-5-methoxybenzimidazole]: the inhibition in vivo at 10 mg/kg (10 mg./kg. po) worked out at 35%. For `CN1CCN(CCCn2c(NC(=O)c3cc(Cl)cc(Cl)c3)nc3ccccc32)CC1` [3,5-Dichlorophenyl; H; H; drawing 24], the inhibition in vivo at 33 mg/kg (33 mg./kg. ip) came to 31%. Consider `CN1CCN(CCCn2c(NC(=O)c3cccc(Cl)c3)nc3cc(C(F)(F)F)ccc32)CC1` [3-Chlorophenyl; CF3; H; drawing 24, 1-[3-(4-methyl-1-piperazinyl)propyl]-2-(3-chlorobenzamido)-5-trifluoromethylbenzimidazole], for which the inhibition in vivo at 20 mg/kg turned out to be 45%. For the same compound, the inhibition in vivo at 33 mg/kg (33 mg./kg. ip) worked out at 73%. For `Cc1ccc2c(c1)nc(NC(=O)c1cccc(Cl)c1)n2CCCN1CCN(C)CC1` [3-Chlorophenyl; CH3; H; drawing 24], the inhibition in vivo at 20 mg/kg stood at 29%.

Consider `CN1CCN(CCCn2c(NC(=O)c3cccc(Cl)c3)nc3cc(Cl)c(Cl)cc32)CC1` [3-Chlorophenyl; Cl; Cl; drawing 24], for which, under “33 mg./kg. ip”, the inhibition in vivo at 33 mg/kg is 66%. As for `CN1CCN(CCCn2c(NC(=O)c3cccc(Cl)c3)nc3cc(Cl)ccc32)CC1` [3-Chlorophenyl; Cl; H; drawing 24], the inhibition in vivo at 10 mg/kg (10 mg./kg. po) was -5%. The inhibition in vivo at 33 mg/kg (33 mg./kg. ip) was found to be 66%. For `Cc1ccc2nc(NC(=O)c3cccc(Cl)c3)n(CCCN3CCN(C)CC3)c2c1` [3-Chlorophenyl; H; CH3; drawing 24] the same measures were -5% and 66%. Turning to `CN(C)CCCn1c(NC(=O)c2cccc(Cl)c2)nc2ccccc21` [3-Chlorophenyl; H; H; Z = N(CH3)2], the inhibition in vivo at 33 mg/kg (33 mg./kg. ip) came out at 33%. Consider `O=C(Nc1nc2ccccc2n1CCCN1CCOCC1)c1cccc(Cl)c1` [3-Chlorophenyl; H; H; drawing 23, 1-[3-(N-morpholino)propyl]-2-(3-chlorobenzamido)benzimidazole], for which the inhibition in vivo at 100 mg/kg (100 mg./kg. po) worked out at 32%. For the compound `CN1CCN(CCCn2c(NC(=O)c3cccc(Cl)c3)nc3ccccc32)CC1` [3-Chlorophenyl; H; H; drawing 24], the inhibition in vivo at 33 mg/kg (33 mg./kg. ip) amounted to 46%. Consider `CN1CCN(CCCn2c(NC(=O)c3cccc(Cl)c3)nc3cccnc32)CC1` [3-Chlorophenyl; H; H; drawing 25], for which the inhibition in vivo at 20 mg/kg was found to be 26%.

As to `O=C(Nc1nc2ccccc2n1CCCN1CCCCC1)c1cccc(Cl)c1` [3-Chlorophenyl; H; H; drawing 26], the inhibition in vivo at 33 mg/kg (33 mg./kg. ip) worked out at 34%. As to `COc1ccc2c(c1)nc(NC(=O)c1cccc(Cl)c1)n2CCCN1CCN(C)CC1` [3-Chlorophenyl; OCH3; H; drawing 24], the inhibition in vivo at 10 mg/kg (10 mg./kg. po) was -1%. In addition, for the setting “33 mg./kg. ip”, the inhibition in vivo at 33 mg/kg turned out to be 59%.

For `CN1CCN(CCCn2c(NC(=O)c3cccc(Cl)c3)nc3cc(S(=O)(=O)N(C)C)ccc32)CC1` [3-Chlorophenyl; SO2 N(CH3)2; H; drawing 24, 1-[3-(4-methyl-1-piperazinyl)propyl]-2-(3-chlorobenzamido)-5-(N,N-dimethylsulfonamido)benzimidazole], where the note is “10 mg./kg. po”, the inhibition in vivo at 10 mg/kg was found to be 35%. Moreover, the inhibition in vivo at 33 mg/kg (33 mg./kg. po) amounted to 54%. As to `CN1CCN(CCCn2c(NC(=O)c3cccc(F)c3)nc3ccccc32)CC1` [3-Fluorophenyl; H; H; drawing 24], under “33 mg./kg. ip”, the inhibition in vivo at 33 mg/kg is 34%. The same measure, in the same setting: then `O=C(Nc1nc2ccccc2n1CCCN1CCCCC1)c1cccc(F)c1` [3-Fluorophenyl; H; H; drawing 26], with 27%; and `COc1cccc(C(=O)Nc2nc3cc(C(F)(F)F)ccc3n2CCCN2CCN(C)CC2)c1` [3-Methoxyphenyl; CF3; H; drawing 24], with 46%. Turning to `COc1cccc(C(=O)Nc2nc3cc(C)ccc3n2CCCN2CCN(C)CC2)c1` [3-Methoxyphenyl; CH3; H; drawing 24, 1-[3-(4-methyl-1-piperazinyl)propyl]-2-(3-methoxybenzamido)-5-methylbenzimidazole], the inhibition in vivo at 20 mg/kg stood at 37%. In the case of `COc1cccc(C(=O)Nc2nc3cc(Cl)ccc3n2CCCN2CCN(C)CC2)c1` [3-Methoxyphenyl; Cl; H; drawing 24], the inhibition in vivo at 33 mg/kg (33 mg./kg. ip) worked out at 17%. For `COc1cccc(C(=O)Nc2nc3ccc(C)cc3n2CCCN2CCN(C)CC2)c1` [3-Methoxyphenyl; H; CH3; drawing 24, 1-[3-(4-methyl-1-piperazinyl)propyl]-2-(3-methoxybenzamido)-6-methylbenzimidazole], the inhibition in vivo at 20 mg/kg came out at 44%.

Consider `COc1cccc(C(=O)Nc2nc3ccccc3n2CCCN(C)C)c1` [3-Methoxyphenyl; H; H; Z = N(CH3)2], for which the inhibition in vivo at 33 mg/kg (33 mg./kg. ip) amounted to 21%.
